Source: ChEMBL document CHEMBL6092167, “Phosphorylation as an Effective Tool to Improve Stability and Reduce Toxicity of Antimicrobial Peptides” (J Med Chem, 2024)
Positions of bridges follow the written chain, without caps; N, C: chain ends. Non-standard residues stand in square brackets, D forms with d. Residues, ends and D or L forms follow the SMILES beside them. *: point of attachment. X1 = CC[C@H](C)CCCCC(=O)*; Dab = NCC[C@H](N)C(=O)O

Key:
[1] = Toxicity in ip dosed BALB/c mouse assessed as lusterless hair at LD50 dose measured within 1 hr by Karber method; assay type: organism-based; settings: in vivo
[2] = Toxicity in ip dosed BALB/c mouse assessed as lateral recumbency at LD50 dose measured within 1 hr by Karber method; assay type: organism-based; settings: in vivo
[3] = Toxicity in ip dosed BALB/c mouse assessed as hemorrhage in lung at LD50 dose by H and E staining based assay; assay type: organism-based; settings: in vivo
[4] = Toxicity in ip dosed BALB/c mouse assessed as inflammatory cell infiltration in lung at LD50 dose by H and E staining based assay; assay type: organism-based; settings: in vivo
[5] = Toxicity in ip dosed BALB/c mouse assessed as sharp breathing at LD50 dose measured within 1 hr by Karber method; assay type: organism-based; settings: in vivo
[6] = Hemolytic activity in mouse erythrocyte incubated for 1 hr by microplate reader assay; assay type: toxicity, cell-based
[7] = Toxicity in ip dosed BALB/c mouse measured after 14 days; assay type: organism-based; settings: in vivo, time 14 day
[8] = Cytotoxicity against HEK293T cells incubated for 1 hr by fluorescence based microplate reader assay; assay type: toxicity, cell-based, HEK-293T; settings: human
[9] = Toxicity in ip dosed BALB/c mouse assessed as pulmonary congestion at LD50 dose by H and E staining based assay; assay type: organism-based; settings: in vivo
[10] = Toxicity in ip dosed BALB/c mouse assessed as renal cell swelling at LD50 dose by H and E staining based assay; assay type: organism-based; settings: in vivo
[11] = Toxicity in ip dosed BALB/c mouse assessed as alveolar constriction at LD50 dose by H and E staining based assay; assay type: organism-based; settings: in vivo
[12] = Toxicity in ip dosed BALB/c mouse assessed as convulsions at LD50 dose measured within 1 hr by Karber method; assay type: organism-based; settings: in vivo
[13] = Toxicity in ip dosed BALB/c mouse assessed as respiratory depression at LD50 dose measured within 1 hr by Karber method; assay type: organism-based; settings: in vivo
[14] = Toxicity in ip dosed BALB/c mouse assessed as inflammatory cell infiltration in kidney at LD50 dose by H and E staining based assay; assay type: organism-based; settings: in vivo
[15] = Toxicity in ip dosed BALB/c mouse assessed as rapid death at LD50 dose measured within 1 hr by Karber method; assay type: organism-based; settings: in vivo
[16] = Toxicity in ip dosed BALB/c mouse assessed as hemorrhage in kidney at LD50 dose by H and E staining based assay; assay type: organism-based; settings: in vivo

In the case of `CC(C)CCCCC(=O)N[C@@H](CCN)C(=O)N[C@H](C(=O)N[C@@H](CCN)C(=O)N[C@H]1CCNC(=O)[C@H]([C@@H](C)O)NC(=O)[C@H](CCN)NC(=O)[C@H](CCN)NC(=O)[C@H](CC(C)C)NC(=O)[C@@H](Cc2ccccc2)NC(=O)[C@H](CCN)NC1=O)[C@@H](C)O.CC[C@H](C)CCCCC(=O)N[C@@H](CCN)C(=O)N[C@H](C(=O)N[C@@H](CCN)C(=O)N[C@H]1CCNC(=O)[C@H]([C@@H](C)O)NC(=O)[C@H](CCN)NC(=O)[C@H](CCN)NC(=O)[C@H](CC(C)C)NC(=O)[C@@H](Cc2ccccc2)NC(=O)[C@H](CCN)NC1=O)[C@@H](C)O` (X1-[Dab]T[Dab][Dab][Dab][dF]L[Dab][Dab]T; lactam 4-C), the Activity [1] was “Toxic”, the Activity [2] was “Toxic” and the Activity [3] was “Toxic”. The Activity [4] was “Toxic”, the Activity [5] was “Toxic” and the MHC [6] was > 256 µM. For the same compound, the LD50 at 336 h [7] was 25.7 mg/kg, the CC50 at 1 h [8] was 128 µM and the Activity [9] was “Toxic”. For the same compound, the Activity [10] was “Toxic”, the Activity [11] was “Toxic” and the Activity [12] was “Toxic”. The Activity [13] was “Toxic”, the Activity [14] was “Toxic” and the Activity [15] was “Toxic”. For the same compound, the Activity [16] was “Toxic”.
